The subject of series [1] is PTH concentration in blood. The format is in vivo. The method, then:
Compounds of Exp. 3-49, Exp. 3-57, Exp. 3-93, Exp. 3-95, Exp. 3-102, Exp. 3-106, Exp. 8-5, Exp. 10-1 and Exp. 10-25 were chosen as a test compound. Each of them was either dissolved or suspended in physiological saline or distilled water containing 1-20% DMSO, 5% CremophorEL, 10-40% PEG300, etc. and administered intravenously (tail vein or femoral vein) or orally administered to a 7 week to 10 week old male SD-IGS rat (Nippon Charles-River) with dosage of 0.1-100 mg/kg. After that, blood sample was taken from subclavian vein over the time and serum was separated. Concentration of PTH in blood was measured using Rat Intact PTH ELISA Kit (manufactured by Immutopics) to evaluate an activity of increasing PTH concentration in blood. […] Therefore, the safety of these compounds was confirmed again.

In series [2] the target is T1, human calcium-sensing receptor (CaSR) (Homo sapiens, UniProt P41180).
T1 construct: expressed in transfected cells
T1 sequence (P41180 20-1078): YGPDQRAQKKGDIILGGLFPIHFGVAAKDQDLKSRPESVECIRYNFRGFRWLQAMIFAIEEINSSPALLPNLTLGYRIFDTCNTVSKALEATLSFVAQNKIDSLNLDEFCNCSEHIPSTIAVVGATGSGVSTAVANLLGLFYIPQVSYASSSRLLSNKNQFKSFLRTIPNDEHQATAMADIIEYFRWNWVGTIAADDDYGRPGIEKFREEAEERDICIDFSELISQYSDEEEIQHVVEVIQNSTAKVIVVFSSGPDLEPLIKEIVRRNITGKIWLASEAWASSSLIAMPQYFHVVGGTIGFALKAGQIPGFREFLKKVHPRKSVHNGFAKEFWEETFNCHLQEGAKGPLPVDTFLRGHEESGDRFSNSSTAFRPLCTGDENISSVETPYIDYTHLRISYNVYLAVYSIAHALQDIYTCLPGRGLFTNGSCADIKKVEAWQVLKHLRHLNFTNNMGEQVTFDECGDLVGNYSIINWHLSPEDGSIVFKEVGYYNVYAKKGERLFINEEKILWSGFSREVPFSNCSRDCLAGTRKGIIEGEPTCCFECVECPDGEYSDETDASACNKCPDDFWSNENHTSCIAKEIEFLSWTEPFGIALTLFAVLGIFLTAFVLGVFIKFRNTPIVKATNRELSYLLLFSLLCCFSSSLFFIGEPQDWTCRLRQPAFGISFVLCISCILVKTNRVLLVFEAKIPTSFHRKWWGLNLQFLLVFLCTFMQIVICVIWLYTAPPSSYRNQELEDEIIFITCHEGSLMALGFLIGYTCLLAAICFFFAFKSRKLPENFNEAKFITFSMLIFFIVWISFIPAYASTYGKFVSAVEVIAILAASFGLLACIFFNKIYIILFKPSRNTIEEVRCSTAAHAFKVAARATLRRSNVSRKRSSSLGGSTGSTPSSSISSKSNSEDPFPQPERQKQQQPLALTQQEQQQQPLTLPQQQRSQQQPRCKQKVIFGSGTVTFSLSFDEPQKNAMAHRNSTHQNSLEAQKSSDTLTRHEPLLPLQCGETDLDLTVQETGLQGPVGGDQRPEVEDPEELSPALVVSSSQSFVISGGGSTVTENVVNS
As to the kind of experiment: intracellular Ca assay, CaSR antagonist activity in HEK293/hCaSR cells. In kind it is cell-based. The conditions noted are these: Fura2-AM, inhibition of response to calcium chloride ligand solution, read-out: IC50 values according to the intracellular Ca assay (CaSR antagonist activity). A digest of the protocol:
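HEK293/hCaSR cells were loaded with Fura2-AM and pre-incubated with compound for 160 s at 37° C in HEPES buffer (pH 7.4, 0.8 mM CaCl2), then challenged with calcium ligand solution. Read-out was the peak 340/380 nm fluorescence ratio; inhibition is relative to no-compound (0%) and no-calcium-ligand (100%) controls.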

Consider `CCc1cc(-c2ccc(CCC(=O)O)cc2)ccc1S(=O)(=O)N(C)C[C@H](O)CNC(C)(C)CC1Cc2ccccc2C1` [Exp. 3-102, (R)-3-(4′-(N-(3-(1-(2,3-dihydro-1H-inden-2-yl)-2-methylpropan-2-ylamino)-2-hydroxypropyl)-N-methylsulfamoyl)-3′-ethylbiphenyl-4-yl)propionic acid], for which the “death or abnormality of the rat administered with the compounds” value in series [1] (0.1-100 mg/kg intravenous or oral) is given as “no death or abnormality was found”. In addition, in series [1] (rat, 0.1-100 mg/kg), the “PTH concentration in blood after 30 minutes” value is “returned to a normal value” and the “dose dependence of PTH concentration increase” value is recorded as “dependent on the administration amount of the compound”. Further, the “PTH concentration in blood 5 minutes after the intravenous administration” value in series [1] (rat, 0.1-100 mg/kg, Rat Intact PTH ELISA, versus normal value) is “increased at least twice the normal value”.

For `CN(C[C@H](O)CNC(C)(C)Cc1ccc2ccccc2c1)S(=O)(=O)Cc1ccccc1-c1cc(F)cc(C(=O)O)c1` [Exp. 3-85, (R)-5-fluoro-2′-((N-(2-hydroxy-3-(2-methyl-1-(naphthalen-2-yl)propan-2-ylamino)propyl)-N-methylsulfamoyl)methyl)biphenyl-3-carboxylic acid], the IC50 (as a rule, the concentration needed to halve the response being measured) in series [2] lay within 1000 to 3000 nM.

As for `CCc1cc(-c2ccc(CCC(=O)O)c(F)c2)ccc1S(=O)(=O)N(C)C[C@H](O)CNC(C)(C)CC1Cc2ccccc2C1` [Exp. 5-58, (R)-3-(4′-(N-(3-(1-(2,3-dihydro-1H-inden-2-yl)-2-methylpropan-2-ylamino)-2-hydroxypropyl)-N-methylsulfamoyl)-3′-ethyl-3-fluorobiphenyl-4-yl)propionic acid], the IC50 in series [2] was no more than 300 nM.

`CN(C[C@H](O)CNC(C)(C)Cc1ccc2ccccc2c1)S(=O)(=O)c1cccc(-c2ccc(C(=O)O)cc2N)c1` [Exp. 3-19, (R)-2-amino-3′-(N-(2-hydroxy-3-(2-methyl-1-(naphthalen-2-yl)propan-2-ylamino)propyl)-N-methylsulfamoyl)biphenyl-4-carboxylic acid]: the IC50 in series [2] was 300 to 1000 nM.

Take `CCc1cc(-c2ccc(CCC(=O)O)cc2)ccc1S(=O)(=O)N(C)C[C@H](O)CNC(C)(C)CCCc1cccs1` [Exp. 9-92, (R)-3-(3′-ethyl-4′-(N-(2-hydroxy-3-(2-methyl-5-(thiophen-2-yl)pentan-2-ylamino)propyl)-N-methylsulfamoyl)biphenyl-4-yl)propionic acid]: the IC50 in series [2] is no more than 300 nM.

In the case of `CN(C[C@H](O)CNC(C)(C)CC1Cc2ccccc2C1)S(=O)(=O)c1cccc(-c2ccc(NC(=O)CCC(=O)O)cc2)c1` [Exp. 3-59, (R)-4-(3′-(N-(3-(1-(2,3-dihydro-1H-inden-2-yl)-2-methylpropan-2-ylamino)-2-hydroxypropyl)-N-methylsulfamoyl)biphenyl-4-ylamino)-4-oxobutanoic acid], in series [2], the IC50 is no more than 300 nM.

As for `CN(C[C@H](O)CNC(C)(C)Cc1ccc2ccccc2c1)S(=O)(=O)c1cccc(-c2ccc(C=CC(=O)O)cc2)c1` [Exp. 3-14, (R)-3-(3′-(N-(2-hydroxy-3-(2-methyl-1-(naphthalen-2-yl)propan-2-ylamino)propyl)-N-methylsulfamoyl)biphenyl-4-yl)acrylic acid], in series [2], the IC50 was 300 to 1000 nM.

Consider `CN(C[C@H](O)CNC(C)(C)CCCc1ccccc1)S(=O)(=O)c1ccc(-c2ccc(CCC(=O)O)cc2)c(Cl)c1` [Exp. 3-114, (R)-3-(2′-chloro-4′-(N-(2-hydroxy-3-(2-methyl-5-phenylpentan-2-ylamino)propyl)-N-methylsulfamoyl)biphenyl-4-yl)propionic acid], for which, in series [2], the IC50 was no more than 300 nM.

As for `CN(C[C@H](O)CNC(C)(C)CC1Cc2ccccc2C1)S(=O)(=O)c1ccc(-c2ccc(CCC(=O)O)c(F)c2)c(Cl)c1` [Exp. 5-59, (R)-3-(2′-chloro-4′-(N-(3-(1-(2,3-dihydro-1H-inden-2-yl)-2-methylpropan-2-ylamino)-2-hydroxypropyl)-N-methylsulfamoyl)-3-fluorobiphenyl-4-yl)propionic acid], the IC50 in series [2] is no more than 300 nM.

As to `CN(C[C@H](O)CNC(C)(C)Cc1ccc2ccccc2c1)S(=O)(=O)c1ccc(-c2cc3c(c(C(=O)O)c2)OCC3)cc1` [Exp. 3-36, (R)-5-(4-(N-(2-hydroxy-3-(2-methyl-1-(naphthalen-2-yl)propan-2-ylamino)propyl)-N-methylsulfamoyl)phenyl)-2,3-dihydrobenzofuran-7-carboxylic acid], the IC50 in series [2] lay in the range of 1000 to 3000 nM.

On to `CN(C[C@H](O)CNC(C)(C)CC1Cc2ccccc2C1)S(=O)(=O)c1cc(-c2ccc(F)c(C(=O)O)c2)cc(C(F)(F)F)c1` [Exp. 3-193, (R)-3′-(N-(3-(1-(2,3-dihydro-1H-inden-2-yl)-2-methylpropan-2-ylamino)-2-hydroxypropyl)-N-methylsulfamoyl)-4-fluoro-5′-(trifluoromethyl)biphenyl-3-carboxylic acid], for which the IC50 in series [2] is no more than 300 nM.

`CN(C[C@H](O)CNC(C)(C)Cc1ccc2ccccc2c1)S(=O)(=O)c1cccc(-c2cccc(C=CC(=O)O)c2)c1` [Exp. 3-16, (R)-3-(3′-(N-(2-hydroxy-3-(2-methyl-1-(naphthalen-2-yl)propan-2-ylamino)propyl)-N-methylsulfamoyl)biphenyl-3-yl)acrylic acid]: the IC50 in series [2] fell in the range of 1000 to 3000 nM.

Turning to `Cc1cc(-c2cccc(S(=O)(=O)N(C)C[C@H](O)CNC(C)(C)Cc3ccc4ccccc4c3)c2)ccc1C(=O)O` [Exp. 3-8, (R)-3′-(N-(2-hydroxy-3-(2-methyl-1-(naphthalen-2-yl)propan-2-ylamino)propyl)-N-methylsulfamoyl)-3-methylbiphenyl-4-carboxylic acid], the IC50 in series [2] was no more than 300 nM.

On to `CN(C[C@H](O)CNC(C)(C)CC1Cc2ccccc2C1)S(=O)(=O)c1cccc(-c2ccc(C(=O)O)c(F)c2)c1` [Exp. 3-53, (R)-3′-(N-(3-(1-(2,3-dihydro-1H-inden-2-yl)-2-methylpropan-2-ylamino)-2-hydroxypropyl)-N-methylsulfamoyl)-3-fluorobiphenyl-4-carboxylic acid], for which the IC50 in series [2] was no more than 300 nM.

Take `CN(C[C@H](O)CNC(C)(C)CC1Cc2ccccc2C1)S(=O)(=O)c1cccc(-c2ccc(C(=O)O)s2)c1` [Exp. 3-130, (R)-5-(3-(N-(3-(1-(2,3-dihydro-1H-inden-2-yl)-2-methylpropan-2-ylamino)-2-hydroxypropyl)-N-methylsulfamoyl)phenyl)thiophen-2-carboxylic acid]: the IC50 in series [2] is no more than 300 nM.

Take `Cc1c(C(=O)O)cccc1-c1cccc(S(=O)(=O)N(C)C[C@H](O)CNC(C)(C)CC2Cc3ccccc3C2)c1` [Exp. 3-92, (R)-3′-(N-(3-(1-(2,3-dihydro-1H-inden-2-yl)-2-methylpropan-2-ylamino)-2-hydroxypropyl)-N-methylsulfamoyl)-2-methylbiphenyl-3-carboxylic acid]: in series [2], the IC50 was no more than 300 nM.

On to `CCc1cc(-c2ccc(CCCC(=O)O)cc2)ccc1S(=O)(=O)N(C)C[C@H](O)CNC(C)(C)CCCc1ccccc1` [Exp. 5-77, (R)-4-(3′-ethyl-4′-(N-(2-hydroxy-3-(2-methyl-5-phenylpentan-2-ylamino)propyl)-N-methylsulfamoyl)biphenyl-4-yl)butanoic acid], for which, in series [2], the IC50 was no more than 300 nM.

Regarding `CN(C[C@H](O)CNC(C)(C)Cc1ccc2ccccc2c1)S(=O)(=O)c1cccc(-c2ccc(C(=O)O)c(N)c2)c1` [Exp. 3-10, (R)-3-amino-3′-(N-(2-hydroxy-3-(2-methyl-1-(naphthalen-2-yl)propan-2-ylamino)propyl)-N-methylsulfamoyl)biphenyl-4-carboxylic acid], the IC50 in series [2] is no more than 300 nM.

The values above are taken from patent US8039514B2, “Sulfonamide compounds and use thereof” (Asahi Kasei Pharma Corporation, priority 2008, dated 2011).
